The results in this text go back to patent US8207206B2, “(S,R)-3-phenyl-4,5 dihydro-5-isoxazole acetic acid-nitric oxide and use thereof as anti-cancer and antiviral agent” (OncoNOx APS, priority 2007, dated 2012).

For assay [1], the system named is B16 cells. The assay can be described thus: ROS measurement by DHR fluorescence (flow cytometry). It is filed as cell-based, mouse. Conditions: B16, 25 μg/ml, 24 h. As for the experimental part:
(§1) The cells grown in the 6-well plate were stained with 1 μM dihydrorhodamine 123 (DHR) 20 min before the treatment with the test compound. At the end of the cultivation period the cells were detached, washed and resuspended in PBS. Analysis of ROS release was performed with a FACSCalibur and analyzed using CellQuest Pro software (Kaludjerovic 2005).

Assay [2] relates to L929 cells. The description is as above. Type of assay: cell-based, mouse. The following applies: L929, 25 μg/ml, 24 h. Here is the method:
as §1

In a further assay the test system is C6 rat astrocytoma cells. The assay can be described thus: MTT / CV cell viability test. It is filed as cell-based. The following applies: 24 h. Here is the method: (§2) Rat glioma cell line C6 was a kind gift from Dr. Pedro Tranque (Universidad de Castilla-La Mancha, Albacete, Spain), murine melanoma B16 cell line was a kind gift from Dr. Sinisa Radulovic (Institute for Oncology and Radiology of Serbia, Belgrade, Serbia) while mouse fibrosarcoma L929 was obtained from the European Collection of Animal Cell Cultures (Salisbury, UK). Cells were grown in HEPES-buffered RPM, 1640 medium supplemented with 5% FCS, 2 mM glutamine, 0.01% sodium pyruvate, 5×10^−5 M 2-mercaptoethanol and antibiotics (culture medium) at 37° C. in a humidified atmosphere with 5% CO2. After conventional trypsinization the cells were seeded at a concentration of 10^4 cells/well in a 96-well plate, of 2×10^5 cells/well in a 6-well plate or at 3×10^4 cells/well in a 4-well chamber slide, cultivated overnight, and then exposed to the test compound.
(§3) The cells were seeded in flat-bottom 96-well plates (10^4 cells/well) in a final volume of 200 μl of culture medium, incubated overnight, then treated with different concentrations of the test compound. After 24 h incubation, cell viability was assessed using 3-4,5-dimethylthiazol-2-yl)-2,5-diphenyltetrazolium bromide (MTT) test, based on the mitochondrial-dependent reduction of MTT to formazan, or by crystal violet (CV) staining of adherent cells, as previously described (Mijatovic et al CMLS 2004). The results are presented as % of control values obtained in untreated cultures. The rate of cell proliferation was also determined using flow cytometric analysis of cells labeled with CFSE (Kang 2005). The cells were detached, added with 1.5 μM CFSE and allowed to stand for 15 min at 37° C., then washed twice and seeded in 6-well plates at 2×10^5. The cells were treated with the compound for 24 and 48 h, trypsinized and washed twice. Finally, the cells were resuspended in PBS and analyzed by flow cytometry. Green fluorescence emission from cells illuminated with excitation light of 488 nm was measured with a FACS Calibur (BD, Heidelberg, Germany) and analyzed using the CellQuest software.

In a further assay the test system is B16 mouse melanoma cells. The assay can be described thus: MTT / CV cell viability test. It is filed as cell-based. Conditions: 24 h. As for the experimental part: as §2, §3
Assay [3] deals with L929 mouse fibrosarcoma cells. Description: MTT / CV cell viability test. The following applies: 24 h. It is filed as cell-based. As for the experimental part: as §2, §3
Assay [4] relates to B16 cells. Description: Cell cycle analysis and apoptosis detection (PI staining, flow cytometry). Type of assay: cell-based, mouse. Conditions: B16, 25 μg/ml, 24 h. As for the experimental part: (§4) As a marker of necrotic cell death, the release of intracellular enzyme LDH, which mediates the conversion 2,4-dinitrophenylhydrazine into visible hydrazone precipitate in the presence of pyruvate, was measured. The cells were seeded in flat-bottom 96-well plates as indicated above and the assay was performed after 24 h incubation, as previously described (Decker et al). The percentage of dead cells was determined using the following formula: [(E−C)/(T−C)]×100, wherein E is the experimental absorbance of treated cultures measured at 492 nm, C is the absorbance of supernatants of control untreated cells, and T is the absorbance corresponding to the maximal (100%) LDH release of Triton-lysed cells. Cell cycle analysis and apoptosis detection were carried out exactly as described in the literature (Mijatovic CMLS 2005). Acidic vesicular organelles, which characterise autophagy, are stained by vital dye acridin orange. The intensity of red fluorescence is proportional to the acidity and volume of the organelles, while the cytoplasm and nucleolus emits bright green and dim red (Kanzawa 2004). […] Green (510-530 nm) and red (>650 nm) fluorescence emission from 10^4 cells illuminated with blue (488 nm) excitation light was measured with a FACS Calibur and analyzed using CellQuest software.

Assay [5] deals with L929 cells. Described as above. Type of assay: cell-based, mouse. The following applies: L929, 25 μg/ml, 24 h. Here is the method:
as §4

A further assay has as its system C6 cells. Description: CFSE staining, tumor cell proliferation rate (flow cytometry). It is filed as cell-based, rat. Conditions: C6, GIT27-NO 25 μg/ml, after 48 h; control 8.37%. As for the experimental part:
as §3
(In flow cytometry, cells or beads pass a laser one at a time.)

With `N#Cc1c(COC(=O)CC2CC(c3ccccc3)=NO2)no[n+]1[O-]` (racemic) [GIT27-NO, (S,R)-3-phenyl-4,5 dihydro-5-isoxazole acetic acid-nitric oxide], the “intracellular production of ROS (DHR fluorescence)” value in the assay with B16 cells [1] and with L929 cells [2] was “markedly increased” throughout. For the same compound, the “viability (MTT) of GIT27-NO treated cells in the presence of autophagic inhibitors” value in the assay with C6 rat astrocytoma cells (C6, GIT27-NO 25 μg/ml, 3-MA 1 mg/ml or Baf 0.5 μM) was “recovered”; with B16 mouse melanoma cells (B16, GIT27-NO 25 μg/ml, 3-MA 1 mg/ml or Baf 0.5 μM), “recovered”. Besides, the “survival (MTT) of GIT27-NO treated cells with specific MAP kinase inhibitors” value with C6 rat astrocytoma cells (C6, GIT27-NO 25 μg/ml, ERK inhibitor PD98059 50 μM, JNK inhibitor SP600125 0.75 μM) is reported as “significantly improved the survival”; with B16 mouse melanoma cells (B16, GIT27-NO 25 μg/ml, JNK inhibitor SP600125 0.75 μM), “significantly improved the survival”; in assay [3] (L929, GIT27-NO 25 μg/ml, ERK inhibitor PD98059 50 μM, p38 inhibitor SB202190 20 μM) it was “significantly improved the survival”. Besides, the “viability (MTT) of GIT27-NO treated cells with ROS scavenger NAC” value in the assay with C6 rat astrocytoma cells (C6, GIT27-NO 25 μg/ml, NAC 2.5 μM) is “restored the viability”; with B16 mouse melanoma cells (B16, GIT27-NO 25 μg/ml, NAC 2.5 μM), “restored the viability”; in assay [3] (L929, GIT27-NO 25 μg/ml, NAC 2.5 μM), “restored the viability”. For the same compound, the “viability (MTT) of GIT27-NO treated cells with PTK inhibitor tyrphostin” value in the assay with C6 rat astrocytoma cells (C6, GIT27-NO 25 μg/ml, tyrphostin 5 μM) is given as “almost completely restored the viability”; in the assay with B16 mouse melanoma cells (B16, GIT27-NO 25 μg/ml, tyrphostin 5 μM), “almost completely restored the viability”; in assay [3] (L929, GIT27-NO 25 μg/ml, tyrphostin 5 μM), “almost completely restored the viability”. Further, the “viability (MTT) of GIT27-NO treated cells in parallel with NO-scavenger hemoglobin” value with C6 rat astrocytoma cells (C6, hemoglobin 12.5 μM, GIT27-NO 25 mg/ml (as printed in b12)) is reported as “almost completely restored”. The “cell viability (MTT, mitochondrial respiration)” value is on record as “dose-dependent reduction of mitochondrial respiration” with C6 rat astrocytoma cells (C6 cells, different concentrations, cell number also reduced by CV); “dose-dependent reduction of mitochondrial respiration” in the assay with B16 mouse melanoma cells (B16 cells, different concentrations, cell number also reduced by CV); “dose-dependent reduction of mitochondrial respiration” in assay [3] (L929 cells, different concentrations, cell number also reduced by CV). Also, in the assay on B16 cells [4], the “percentage of cells in subG compartment (hypodiploid cells)” value is below 10%. In addition, in the assay on L929 cells [5], the “proportion of hypodiploid cells (subG compartment)” value is given as “significantly increased proportion of hypodiploid cells”. Besides, the “CFSE R1 = parent population” value with C6 cells came to 42.53%.
